Experimental data reported in patent publication US20120316342A1, “THERAPEUTIC AGENT FOR HEPATITIS C” (priority 2010, published 2012).

Tests used:
[1] = test system: #50-1 (subgenomic replion) cells; test: Anti-HCV activity using subgenomic replicon cells (HCV genomic RNA, real-time RT-PCR); assay type: cell-based; settings: for anti-HCV activity (in words): Table 1; for EC50: HCV genomic RNA level, 3 days; for HCV genomic RNA level: concentration of 10 μM, relative to control group without test compound
Experimental: (§1) The 70% confluent #50-1 (subgenomic replion) cells or NNC #2 (full-length replicon) cells (Ishii et al., J. Virol., 2006, vol. 80, pp. 4510-4520) were dispersed in a culture bottle with the aid of trypsin, and the resulting dispersion was resuspended in a high-glucose Dulbecco's modified Eagle medium (DMEM) containing 10% FCS and 1 mg/ml G418 (Sigma) (see FIGS. 1 and 2). The cell suspension adjusted at 5×10^4 cells/ml with the use thereof was added to wells of a 96-well culture plate at 100 μl/well (the final cell density in each well: […]), and culture was conducted at 37° C. Supernatants of culture media were removed from wells of the plate on the following day, 200 μl each of the solutions of test compounds appropriately diluted with a G418-free culture solution were added, and culture was further continued. Samples were prepared from cells in each well 3 days later with the use of the TaqMan® Gene Expression Cell-to-CT® (Applied Biosystems). Reverse transcription was carried out in accordance with the protocols for the ABI 7500 PCR systems (Applied Biosystems) at 37° C. for 60 minutes, 95° C. for 5 minutes, and retained at 4° C. Real-time PCR was carried out in accordance with the protocols for the ABI 7500 real-time PCR systems (Applied Biosystems) at 50° C. for 2 minutes, 95° C. for 10 minutes, 40 cycles at 95° C. for 15 seconds, and 60° C. for 1 minute.
(§2) In accordance with the method mentioned above, the level of the HCV genomic RNA and, as the internal standard, the level of mRNA of glyceraldehyde-3-phosphate dehydrogenase (GAPDH) (a house keeping gene of the host cells) were assayed, and a percentage (%) relative to the level of RNA of a control group to which the test compound was not administered was determined. The dose-response relationship of the test compound was analyzed based on the measured level of the HCV genomic RNA to determine EC50, and the dose-response relationship of the test compound was analyzed based on the measured level of GAPDH RNA to determine CC50. The term “EC50” and “CC50” used herein refers to 50% effective concentration (μM) and 50% cytotoxic concentration (μM), respectively.

[2] = Cytotoxicity in subgenomic replicon cells (GAPDH mRNA, real-time RT-PCR); assay type: cell-based; settings: human, #50-1 (subgenomic HCV replicon) cells, GAPDH RNA level
Experimental: as §1, §2

[3] = test system: #50-1 (subgenomic replion) cells; test: as above; assay type: cell-based; settings: GAPDH RNA level, 3 days
Experimental: as §1, §2

[4] = Cytotoxicity in full-length replicon cells (GAPDH mRNA, real-time RT-PCR); assay type: cell-based; settings: human, NNC #2 (full-length HCV replicon) cells, GAPDH RNA level
Experimental: (§3) The 70% confluent #50-1 (subgenomic replion) cells or NNC #2 (full-length replicon) cells (Ishii et al., J. Virol., 2006, vol. 80, pp. 4510-4520) were dispersed in a culture bottle with the aid of trypsin, and the resulting dispersion was resuspended in a high-glucose Dulbecco's modified Eagle medium (DMEM) containing 10% FCS and 1 mg/ml G418 (Sigma) (see FIGS. 1 and 2). The cell suspension adjusted at 5×10^4 cells/ml with the use thereof was added to wells of a 96-well culture plate at 100 μl/well (the final cell density in each well: […]), and culture was conducted at 37° C. […]
(§4) In accordance with the method mentioned above, the level of the HCV genomic RNA and, as the internal standard, the level of mRNA of glyceraldehyde-3-phosphate dehydrogenase (GAPDH) (a house keeping gene of the host cells) were assayed, and a percentage (%) relative to the level of RNA of a control group to which the test compound was not administered was determined. The dose-response relationship of the test compound was analyzed based on the measured level of the HCV genomic RNA to determine EC50, and the dose-response relationship of the test compound was analyzed based on the measured level of GAPDH RNA to determine CC50. […]

[5] = test system: NNC #2 (full-length replicon) cells; test: Anti-HCV activity using full-length replicon cells (HCV genomic RNA, real-time RT-PCR); assay type: cell-based; settings: for EC50: HCV genomic RNA level, 3 days; for anti-HCV activity (in words): FIGS. 3 to 6
Experimental: as §1, §2

[6] = Cytotoxicity (cell survival rate) by tetrazolium staining in luciferase replicon cells; assay type: cell-based; settings: human, subgenomic HCV RNA replicon cells (LucNeo#2), LucNeo#2 subgenomic replicon cells
Experimental: A tetrazolium staining solution (10 μl, Seikagaku Corporation, Tokyo) was added to each well in order to examine cytotoxicity (a cell survival rate). After the cells were incubated for 1 hour, the absorbance at the characteristic absorption wavelength (450 nm) was measured with the use of a microplate reader.
(§5) Based on the luciferase assay results, the HCV genomic RNA level was measured, and a percentage (%) relative to the level of RNA of a control group to which the test compound was not administered was determined. Based on the results of tetrazolium staining, cell survival rates (%) of the group to which the test compound had been administered and of a control group were determined. The dose-response relationship of the test compound was analyzed based on the results of quantitative luciferase assays to determine EC50(μM), and the dose-response relationship of the test compound was analyzed based on the results of tetrazolium staining to determine CC50.

[7] = test system: Subgenomic HCV RNA replicon cells (LucNeo#2) having a luciferase gene; test: Anti-HCV activity using replicon cells (luciferase assay); assay type: cell-based; settings: Hepatitis C virus, 72 h
Experimental: Subgenomic HCV RNA replicon cells (LucNeo#2, Goto et al., Biochem. Biophys. Res. Commun., 2006, vol. 343, pp. 879-884) having a luciferase gene were suspended in a Dulbecco's modified Eagle medium (DMEM) containing 10% FBS and 1 mg/ml G418 (Sigma). The cells were incubated for 24 hours and then cultured in G418-free fresh media each containing test compounds at various concentrations for 3 days. In order to perform luciferase assays, the cells were washed with PBS and treated with a lysate for 10 minutes with intermittent agitation. A cell lysate (25 μl) was transferred to a white microtiter plate. Luciferase assay reagents (100 μl, Promega, Tokyo) were added to each well and the luciferase activity was measured with a luminometer.
as §5

HCV replicon cells = settings: inhibiting the replication of the HCV genome, Non-Patent Document 8; cited from earlier work
[8] = test system: NNC #2 (full-length replicon) cells; test: Cytotoxicity in full-length replicon cells (GAPDH mRNA, real-time RT-PCR); assay type: cell-based; settings: GAPDH RNA level, 3 days
Experimental: as §3, §4

CCCCn1c(=O)c2cc3ccccc3cc2c2ccccc21 [MN314-B, 5-butylbenzo[j]phenanthridin-6(5H)-one]
anti-HCV activity (in words) [1]: very high degree of anti-HCV activity at non-cytotoxic concentrations | CC50 at 3 days [2]: 33.5 µM | CC50 [3]: > 40 µM

CCCCn1c(=O)c2ccccc2c2cc(C(C)C)ccc21 [PN-iPr, 5-butyl-2-isopropylphenanthridin-6(5H)-one]
CC50 at 3 days [4]: 27.7 µM | EC50 ([1]; Hepatitis C virus, 72 h): 4 µM | EC50 ([5]; Hepatitis C virus, NNC2, 72 h): 16.4 µM | CC50 at 3 days [2]: 20.5 µM

CCCCn1c(=O)c2ccccc2c2c3ccccc3ccc21 [MN313-A, 6-butylbenzo[a]phenanthridin-5(6H)-one]
EC50 ([1]; Hepatitis C virus, 72 h): 29.1 µM | anti-HCV activity (in words) [1]: very high degree of anti-HCV activity at non-cytotoxic concentrations | CC50 [3]: 44.5 µM

O=c1c2ccccc2c2cc(C(O)(C(F)(F)F)C(F)(F)F)ccc2n1Cc1ccccc1 [AA-04, 2-(1′,1′,1′,3′,3′,3′-hexafluoro-2′-hydroxypropan-2′-yl)-5-benzylphenanthridin-6(5H)-one]
anti-HCV activity (in words) [5]: high degree of anti-HCV activity

CCCCCCn1c(=O)c2ccccc2c2cc(C(O)(C(F)(F)F)C(F)(F)F)ccc21 [AA-25, 2-(1′,1′,1′,3′,3′,3′-hexafluoro-2′-hydroxypropan-2′-yl)-5-hexylphenanthridin-6(5H)-one]
anti-HCV activity (in words) [5]: high degree of anti-HCV activity

CCCCn1c(=O)c2ccccc2c2cc3c(cc21)C(C)(C)CCC3(C)C [MN256, 6-butyl-8,9,10,11-tetrahydro-8,8,11,11-tetramethylbenzo[2,3-b]phenanthridin-5(6H)-one]
EC50 ([1]; Hepatitis C virus, 72 h): 5 µM | CC50 at 3 days [2]: 31.7 µM

CCCCn1c(=O)c2ccccc2c2cc(C(C)(C)C)ccc21 [MN325, 5-butyl-2-tert-butylphenanthridin-6(5H)-one]
EC50 ([1]; Hepatitis C virus, 72 h): 6.1 µM | CC50 at 3 days [2]: 34.4 µM

CCCCn1c(=O)c2ccccc2c2ccc(C(C)C)cc21 [MN315-B, 5-butyl-3-isopropylphenanthridin-6(5H)-one]
HCV genomic RNA level [1]: 14.7%

CCCCn1c(=O)c2ccccc2c2c(OC)c(C(O)(C(F)(F)F)C(F)(F)F)ccc21 [KZ34, 5-butyl-2-(1′,1′,1′,3′,3′,3′-hexafluoro-2′-hydroxypropan-2-yl)-1-methoxy-phenanthridin-6(5H)-one]
CC50 at 3 days [6]: 25.3 µM | EC50 [7]: 7.2 µM

COc1cc(NC(=O)Nc2cccc(CNC(=O)O[C@H]3CCOC3)c2)ccc1-c1cnco1 [VX497]
IC50 (HCV replicon cells): 0.5 µM

CCCCn1c(=O)c2ccccc2c2ccc3ccccc3c21 [MN305, 5-butylbenzo[c]phenanthridin-6(5H)-one]
EC50 ([1]; Hepatitis C virus, 72 h): 19.5 µM | CC50 [3]: 24.3 µM

CCCCn1c(=O)c2ccc3ccccc3c2c2ccccc21 [MN314-A, 5-butylbenzo[k]phenanthridin-6(5H)-one]
EC50 ([1]; Hepatitis C virus, 72 h): > 31.4 µM | CC50 [3]: 31.4 µM

CCCCn1c(=O)c2ccccc2c2cc(C(O)(C(F)(F)F)C(F)(F)F)ccc21 [AA-24, 2-(1′,1′,1′,3′,3′,3′-hexafluoro-2′-hydroxypropan-2′-yl)-5-butyl-phenanthridin-6(5H)-one]
CC50 [8]: 11.9 µM | EC50 [1]: 4 µM | anti-HCV activity (in words) [5]: high degree of anti-HCV activity | EC50 [5]: 2.8 µM | CC50 [3]: 20.5 µM

CCCCn1c(=O)c2ccccc2c2c(C(C)C)cccc21 [MN315-A, 5-butyl-1-isopropylphenanthridin-6(5H)-one]
HCV genomic RNA level [1]: 46.3%

O=c1c2ccccc2c2cc(C(O)(C(F)(F)F)C(F)(F)F)ccc2n1CC1CCCCC1 [AA-26, 2-(1′,1′,1′,3′,3′,3′-hexafluoro-2′-hydroxypropan-2′-yl)-5-cyclohexylmethyl-phenanthridin-6(5H)-one]
anti-HCV activity (in words) [5]: high degree of anti-HCV activity

CCCCn1c(=O)c2c3ccccc3ccc2c2ccccc21 [MN306, 6-butylbenzo[i]phenanthridin-5(6H)-one]
EC50 ([1]; Hepatitis C virus, 72 h): 29.9 µM | anti-HCV activity (in words) [1]: very high degree of anti-HCV activity at non-cytotoxic concentrations | CC50 at 3 days [2]: > 40 µM

CCCCn1c(=O)c2ccccc2c2cc3ccccc3cc21 [MN313-B, 6-butylbenzo[b]phenanthridin-5(6H)-one]
EC50 ([1]; Hepatitis C virus, 72 h): 3.2 µM | anti-HCV activity (in words) [1]: very high degree of anti-HCV activity at non-cytotoxic concentrations | CC50 at 3 days [2]: 6.3 µM
